Results: article PMC4931907 (eLife, 2016)

Assays:
p300 [1] = target: T1, p300 (Homo sapiens, UniProt Q09472); assay: In vitro HAT assay with recombinant p300, histones and 14C acetyl-CoA; type: biochemical; conditions: for IC50: in vitro HAT assay, recombinant p300 and histones, read-out: IC50, p300 acetyltransferase activity; for Inhibition of p300 acetyltransferase in vitro: data not shown
T1 construct: in vitro acetylation assays with purified histones and a recombinant p300 catalytic domain; purchased Enzo Life Sciences
T1 sequence (Q09472 1287-1663 limits assumed): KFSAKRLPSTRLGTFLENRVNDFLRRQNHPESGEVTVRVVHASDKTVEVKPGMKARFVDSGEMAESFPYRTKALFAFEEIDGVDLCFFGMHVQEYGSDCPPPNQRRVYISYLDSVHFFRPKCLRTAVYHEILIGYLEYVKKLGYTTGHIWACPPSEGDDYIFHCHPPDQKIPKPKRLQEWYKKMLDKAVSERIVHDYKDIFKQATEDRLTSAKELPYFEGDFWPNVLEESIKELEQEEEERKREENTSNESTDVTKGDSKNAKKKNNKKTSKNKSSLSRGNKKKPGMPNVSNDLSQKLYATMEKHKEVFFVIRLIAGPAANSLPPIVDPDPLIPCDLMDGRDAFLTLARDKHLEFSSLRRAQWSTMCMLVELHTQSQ
Experimental: To determine whether salicylate inhibits p300 and other acetyltransferases, we used in vitro acetylation assays with purified histones and a recombinant p300 catalytic domain.
(§1) Figure 1. Salicylate inhibits CBP/p300 in vitro. (A) Recombinant p300, CBP, GCN5, or PCAF and histones were incubated with ^14C-labeled acetyl-CoA with or without sodium salicylate, separated by SDS-PAGE, analyzed by autoradiography, and quantified with Image J software. Acetylation levels are relative to those in untreated controls. (B) Thermal stability assay for sodium salicylate binding to the p300 HAT domain. Tm, melting temperature. (C) and (D) Lineweaver-Burk plots showing kinetic analysis of p300 acetyltransferase inhibition by sodium salicylate. Histone acetylation was measured with several concentrations of acetyl-CoA (C) or histone (D) in the presence or absence of sodium salicylate. DOI: http://dx.doi.org/10.7554/eLife.11156.003 Figure 1—figure supplement 1. […] (A) Dose-response data for inhibition of p300 by salicylate and salicyl-CoA. Acetylation of an H4(3–14) peptide was monitored using direct microfluidic mobility shift analysis as previously described ([Montgomery et al., 2014]; [Fanslau et al., 2010]). Error is given as the 95% confidence interval. […] Error is given as the 95% confidence interval. DOI: http://dx.doi.org/10.7554/eLife.11156.004 [drawing 1] TEXT PRINTED IN THE PICTURE: (A) Salicylate: p300 IC50 (mM): 6.12; Confidence Interval [CI95] (mM): 5.2–7.2 | (A) Salicyl-CoA: p300 IC50 (mM): […]; Confidence Interval [CI95] […] (mM): 0.78–1.4 | (B) Diflunisal-CoA: p300 IC50 (mM): 0.02; Confidence Interval [CI95] (mM): 0.02–0.03
Recombinant HAT ([…]), either p300, CBP, PCAF, or GCN5 (Enzo Life Sciences), and 10 µg of histones (Sigma) were incubated with sodium salicylate (Sigma) in reaction buffer (50 mM HEPES, pH 8.0, 10% glycerol, 1 mM) at 30°C for 30 min and then with 0.1 mCi of ^14C acetyl-CoA at 30°C for 60 min. Reactions were stopped by adding 6x sample buffer and analyzed by SDS-PAGE. The gels were dried, and signals were obtained by autoradiography and quantified with Image J software. To quantify acetylated histone levels, we generated a standard curve from signals of lanes loaded with […] of ^14C labeled histones.

p300 [2] = target: T1, p300; assay: p300 inhibition by direct microfluidic mobility shift analysis, H4(3–14) peptide; type: biochemical; conditions: for IC50: microfluidic mobility shift, H4(3–14) peptide, 5 μM acetyl-CoA; for Fold increased potency of CoA metabolite in comparison with parent drug: ratio of p300 IC50 values
Experimental: as §1
Salicyl-CoA and diflunisal-CoA were synthesized from their parent carboxylic acids and HPLC purified according to previously reported methods ([Padmakumar et al., 1997]). The purity of each acyl-CoA was confirmed by analytical HPLC prior immediately prior to utilization ([Montgomery et al., 2014]; [Fanslau et al., 2010]). P300 inhibition assays were performed using direct microfluidic mobility shift analysis as previously described. Briefly, p300 reaction mixture (50 mM HEPES, pH 7.5, 50 mM NaCl, 2 mM EDTA, 2 mM DTT, 0.05% Triton-X-100, 50 nM p300, 2 μM FITC-histone H4 peptide) was plated in 384-well plates and allowed to equilibrate at room temperature for 10 min. Reactions were initiated by addition of acetyl-CoA (final concentration = 5 μM), bringing the final assay volume to 30 μL. Assays were quenched after 10 min (<15% product accumulation) by addition of 5 μL of 0.5 M neutral hydroxylamine and transferred to a Perkin-Elmer Lab-Chip EZ-Reader instrument for analysis. Separation conditions were: downstream voltage of −500 V, upstream voltage of −2500 V, and a pressure of −1.5 psi. Percent conversion was calculated by ratiometric measurement of substrate/product peak heights. Percent activity represents the percent conversion of KAT reactions treated with inhibitors relative to untreated control KAT reactions, and corrected for nonenzymatic acetylation. Dose-response analysis of p300 inhibition was performed in triplicate and analyzed by nonlinear least-squares regression fit to Y = 100/(1 + 10∧(Log IC50 – X)*H), where H = Hill slope (variable). IC50 values represent the concentration that inhibits 50% of KAT activity. Calculations were performed using Prism 6 (GraphPad) software.

Q: Which IC50 (p300 [1]) does the source give for `Nc1ccc(C(=O)O)c(O)c1` [4-Amino- Salicylic Acid, 4-aminosalicylic acid] here?
A: 12400 µM

Q: `Nc1ccc(O)c(C(=O)O)c1` [5-Amino- Salicylic Acid, 5-aminosalicylic acid] was tested. Which IC50 (p300 [1]) did it give?
A: 7600 µM

Q: For `CC(=O)Oc1ccccc1C(=O)O` [Acetyl- Salicylic Acid, acetylsalicylic acid], which IC50 (p300 [1]) is on record?
A: 14200 µM

Q: Which “Inhibition of p300 acetyltransferase in vitro” value (p300 [1]) does the source give for `CC(=O)Nc1ccc(O)cc1` [acetaminophen] here?
A: did not detect any inhibitory activity

Q: `CC(C)(COP(=O)(O)OP(=O)(O)OCC1OC(n2cnc3c(N)ncnc32)C(O)C1OP(=O)(O)O)C(O)C(=O)NCCC(=O)NCCSC(=O)c1cc(-c2ccc(F)cc2F)ccc1O` (centres unmarked) [diflunisal-CoA] was tested. Which IC50 (p300 [2]) did it give?
A: 20 µM

Q: What about the “Fold increased potency of CoA metabolite in comparison with parent drug” value (p300 [2]) of the same molecule?
A: 52 fold

Q: With `COc1ccc2c(c1)c(CC(=O)O)c(C)n2C(=O)c1ccc(Cl)cc1` [indomethacin] as the molecule, how does the “Inhibition of p300 acetyltransferase in vitro” value (p300 [1]) read?
A: did not detect any inhibitory activity

Q: `COc1c(C)c2c(c(O)c1C/C=C(\C)CCC(=O)O)C(=O)OC2` [mycophenolic acid] was tested. Which IC50 (p300 [1]) did it give?
A: 664 µM

Q: With `CCOc1cc(CC(=O)N[C@@H](CC(C)C)c2ccccc2N2CCCCC2)ccc1C(=O)O` [repaglinide] as the molecule, how does the IC50 (p300 [1]) read?
A: 374 µM

Q: What does the source list for `CC(C)(COP(=O)(O)OP(=O)(O)OC[C@H]1O[C@@H](n2cnc3c(N)ncnc32)[C@H](O)[C@@H]1OP(=O)(O)O)[C@@H](O)C(=O)NCCC(=O)NCCSC(=O)c1ccccc1O` [salicyl-CoA]?
A: IC50 (p300 [2]): 220 µM; Fold increased potency of CoA metabolite in comparison with parent drug (p300 [2]): 28 fold
